{
  "source": "ChEMBL document CHEMBL1795223",
  "about": "“A reverse method for diversity introduction of benzimidazole to synthesize H(+)/K(+)-ATP enzyme inhibitors” (Bioorg Med Chem Lett, 2011)",
  "data": [
    {"species_on_record": "Sus scrofa", "assay": "Inhibition of H+/K+ATPase in pig gastric microsome assessed as liberation of inorganic phosphate using ATP at 10 uM relative to control", "format": "microsomes", "settings": "Stomach", "units": {"inhibition": "%"}, "values": [
      {"smiles": "COc1ccnc(C[S+]([O-])c2nc3cc(Oc4ccc5c(c4)OCO5)c(NC(C)=O)cc3[nH]2)c1OC", "note": "(stereo unspecified)", "inhibition": 1},
      {"smiles": "CCOC(=O)N1CCN(c2cc3nc([S+]([O-])Cc4nccc(OC)c4OC)[nH]c3cc2NC(=O)C2CC2)CC1", "note": "(stereo unspecified)", "inhibition": 4},
      {"smiles": "CCCN(CCC)c1cc2nc([S+]([O-])Cc3nccc(OC)c3OC)[nH]c2cc1NC(=O)C1CC1", "note": "(stereo unspecified)", "inhibition": 11},
      {"smiles": "COc1ccnc(C[S+]([O-])c2nc3cc(Oc4ccccc4)c(NC(C)=O)cc3[nH]2)c1OC", "note": "(stereo unspecified)", "inhibition": 6},
      {"smiles": "COc1c(C)cnc(C[S+]([O-])c2nc3cc(N4CCCCC4)c(NC(=O)C4CC4)cc3[nH]2)c1C", "note": "(stereo unspecified)", "inhibition": 34},
      {"smiles": "COc1c(C)cnc(C[S+]([O-])c2nc3cc(N4CCCCC4)c(NC(=O)COCc4ccccc4)cc3[nH]2)c1C", "note": "(stereo unspecified)", "inhibition": 58},
      {"smiles": "COc1cc2nc([S+]([O-])Cc3ncc(C)c(OC)c3C)[nH]c2cc1NC(=O)c1ccco1", "note": "(stereo unspecified)", "inhibition": 13},
      {"smiles": "COc1ccnc(C[S+]([O-])c2nc3cc(N4CCCCC4)c(NC(=O)COCc4ccccc4)cc3[nH]2)c1OC", "note": "(stereo unspecified)", "inhibition": 32},
      {"smiles": "COc1ccnc(C[S+]([O-])c2nc3cc(N4CCCCC4)c(NC(C)=O)cc3[nH]2)c1OC", "note": "(stereo unspecified)", "inhibition": 8},
      {"smiles": "COc1ccnc(C[S+]([O-])c2nc3cc(Oc4ccccc4)c(NC(=O)c4ccco4)cc3[nH]2)c1OC", "note": "(stereo unspecified)", "inhibition": 9},
      {"smiles": "COc1c(C)cnc(C[S+]([O-])c2nc3cc(N4CCCCC4)c(NC(C)=O)cc3[nH]2)c1C", "note": "(stereo unspecified)", "inhibition": 10},
      {"smiles": "COc1ccnc(C[S+]([O-])c2nc3cc(N4CCCCC4)c(NC(=O)C4CC4)cc3[nH]2)c1OC", "note": "(stereo unspecified)", "inhibition": 32},
      {"smiles": "CCCN(CCC)c1cc2nc([S+]([O-])Cc3ncc(C)c(OC)c3C)[nH]c2cc1NC(=O)C(F)(F)F", "note": "(stereo unspecified)", "inhibition": 3},
      {"smiles": "COc1cc2nc([S+]([O-])Cc3ncc(C)c(OC)c3C)[nH]c2cc1NC(C)=O", "note": "(stereo unspecified)", "inhibition": 4},
      {"smiles": "COc1c(C)cnc(C[S+]([O-])c2nc3cc(Oc4ccccc4)c(NC(C)=O)cc3[nH]2)c1C", "note": "(stereo unspecified)", "inhibition": 37},
      {"smiles": "COc1cc2nc([S+]([O-])Cc3nccc(OC)c3OC)[nH]c2cc1NC(=O)c1ccco1", "note": "(stereo unspecified)", "inhibition": 13},
      {"smiles": "COc1cc2nc([S+]([O-])Cc3nccc(OC)c3OC)[nH]c2cc1NC(=O)C1CC1", "note": "(stereo unspecified)", "inhibition": 16},
      {"smiles": "CCOC(=O)N1CCN(c2cc3nc([S+]([O-])Cc4ncc(C)c(OC)c4C)[nH]c3cc2NC(C)=O)CC1", "note": "(stereo unspecified)", "inhibition": 15},
      {"smiles": "CCCN(CCC)c1cc2nc([S+]([O-])Cc3ncc(C)c(OC)c3C)[nH]c2cc1NC(=O)c1ccco1", "note": "(stereo unspecified)", "inhibition": 39},
      {"smiles": "COc1cc2nc([S+]([O-])Cc3nccc(OC)c3OC)[nH]c2cc1NC(C)=O", "note": "(stereo unspecified)", "inhibition": 4},
      {"smiles": "CCOC(=O)N1CCN(c2cc3nc([S+]([O-])Cc4nccc(OC)c4OC)[nH]c3cc2NC(C)=O)CC1", "note": "(stereo unspecified)", "inhibition": 17},
      {"smiles": "COCCCOc1ccnc(C[S+]([O-])c2nc3ccccc3[nH]2)c1C", "note": "(stereo unspecified) [RABEPRAZOLE SODIUM]", "inhibition": 90},
      {"smiles": "COc1ccnc(C[S+]([O-])c2nc3cc(Oc4ccccc4)c(NC(=O)C4CC4)cc3[nH]2)c1OC", "note": "(stereo unspecified)", "inhibition": 2},
      {"smiles": "CCCN(CCC)c1cc2nc([S+]([O-])Cc3ncc(C)c(OC)c3C)[nH]c2cc1NC(C)=O", "note": "(stereo unspecified)", "inhibition": 62},
      {"smiles": "COc1c(C)cnc(C[S+]([O-])c2nc3cc(Oc4ccccc4)c(NC(=O)c4ccco4)cc3[nH]2)c1C", "note": "(stereo unspecified)", "inhibition": 48},
      {"smiles": "COc1ccnc(C[S+]([O-])c2nc3cc(Oc4ccc5c(c4)OCO5)c(NC(=O)C4CC4)cc3[nH]2)c1OC", "note": "(stereo unspecified)", "inhibition": 0},
      {"smiles": "COc1cc2nc([S+]([O-])Cc3ncc(C)c(OC)c3C)[nH]c2cc1NC(=O)C1CC1", "note": "(stereo unspecified)", "inhibition": 16},
      {"smiles": "COc1c(C)cnc(C[S+]([O-])c2nc3cc(Oc4ccccc4)c(NC(=O)C4CC4)cc3[nH]2)c1C", "note": "(stereo unspecified)", "inhibition": 18},
      {"smiles": "CCCN(CCC)c1cc2nc([S+]([O-])Cc3nccc(OC)c3OC)[nH]c2cc1NC(=O)C(F)(F)F", "note": "(stereo unspecified)", "inhibition": 24},
      {"smiles": "COc1ccc2[nH]c([S+]([O-])Cc3ncc(C)c(OC)c3C)nc2c1", "note": "(stereo unspecified) [OMEPRAZOLE]", "inhibition": 39},
      {"smiles": "COc1c(C)cnc(C[S+]([O-])c2nc3cc(Oc4ccc5c(c4)OCO5)c(NC(=O)C4CC4)cc3[nH]2)c1C", "note": "(stereo unspecified)", "inhibition": 10},
      {"smiles": "COc1c(C)cnc(C[S+]([O-])c2nc3cc(Oc4ccc5c(c4)OCO5)c(NC(C)=O)cc3[nH]2)c1C", "note": "(stereo unspecified)", "inhibition": 35},
      {"smiles": "CCCN(CCC)c1cc2nc([S+]([O-])Cc3ncc(C)c(OC)c3C)[nH]c2cc1NC(=O)C1CC1", "note": "(stereo unspecified)", "inhibition": 33},
      {"smiles": "CCOC(=O)N1CCN(c2cc3nc([S+]([O-])Cc4ncc(C)c(OC)c4C)[nH]c3cc2NC(=O)C2CC2)CC1", "note": "(stereo unspecified)", "inhibition": 21},
      {"smiles": "CCCN(CCC)c1cc2nc([S+]([O-])Cc3nccc(OC)c3OC)[nH]c2cc1NC(=O)c1ccco1", "note": "(stereo unspecified)", "inhibition": 0},
      {"smiles": "COc1ccnc(C[S+]([O-])c2nc3cc(N4CCCCC4)c(NC(=O)C(F)(F)F)cc3[nH]2)c1OC", "note": "(stereo unspecified)", "inhibition": 38},
      {"smiles": "COc1c(C)cnc(C[S+]([O-])c2nc3cc(N4CCCCC4)c(NC(=O)C(F)(F)F)cc3[nH]2)c1C", "note": "(stereo unspecified)", "inhibition": 41},
      {"smiles": "CCCN(CCC)c1cc2nc([S+]([O-])Cc3nccc(OC)c3OC)[nH]c2cc1NC(C)=O", "note": "(stereo unspecified)", "inhibition": 28}
    ]},
    {"target": "not listed separately", "assay": "Inhibition of H+/K+ATPase in pig gastric microsome assessed as liberation of inorganic phosphate using ATP", "format": "microsomes, Sus scrofa, Stomach", "settings": "not given", "units": {"IC50": "µM"}, "values": [
      {"smiles": "COCCCOc1ccnc(C[S+]([O-])c2nc3ccccc3[nH]2)c1C", "note": "(stereo unspecified) [RABEPRAZOLE SODIUM]", "IC50": 1.5},
      {"smiles": "CCCN(CCC)c1cc2nc([S+]([O-])Cc3ncc(C)c(OC)c3C)[nH]c2cc1NC(C)=O", "note": "(stereo unspecified)", "IC50": 16},
      {"smiles": "COc1ccc2[nH]c([S+]([O-])Cc3ncc(C)c(OC)c3C)nc2c1", "note": "(stereo unspecified) [OMEPRAZOLE]", "IC50": 18}
    ]}
  ]
}
